Source: the supplement of paper PMC5579334
± gives the standard deviation of the averaged measurements.

Assays:
YST-1 [1] = assay: % inhibition of CellTiter-Glo viability at highest tested concentration (72 h), relative to DMSO and benzethonium chloride controls; higher = more inhibition
Summary of the method: (§1)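 Viability was scored by CellTiter-Glo ATP luminescence, scaled from vehicle to positive-control wells, with duplicates averaged where present. The cells, MPNST lines and primary human Schwann cells at 750–1000 per well, sat 72 h at 37 °C, 5% CO2, in 384-well plates preprinted with each compound at five concentrations in 10-fold steps. Four-parameter logistic fits were run on the data. These fits give drug sensitivity score and relative IC50 censored at the top concentration, and percent inhibition is reported at the top concentration.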

S462 [2] = assay: as above
Summary of the method: as §1

[3] = tested on: HSC1 (primary human Schwann cells); assay: as above
Summary of the method: as §1

HS-PSS [4] = assay: as above
Summary of the method: as §1

S1507-2 [5] = assay: as above
Summary of the method: as §1

ST8814 [6] = assay: as above
Summary of the method: as §1

[7] = tested on: HSC2 (primary human Schwann cells); assay: as above
Summary of the method: as §1

HS-Sch-2 [8] = assay: as above
Summary of the method: as §1

STS26T [9] = assay: as above
Summary of the method: as §1

YST-1 [10] = assay: drug sensitivity score (DSS, CellTiter-Glo viability, 72 h) (DSS (dimensionless)); higher = more sensitive; extreme values may be limits of the assay
Summary of the method: as §1

S462 [11] = assay: as above
Summary of the method: as §1

[12] = tested on: HSC1 (primary human Schwann cells); assay: as above
Summary of the method: as §1

HS-PSS [13] = assay: as above
Summary of the method: as §1

S1507-2 [14] = assay: as above
Summary of the method: as §1

ST8814 [15] = assay: as above
Summary of the method: as §1

[16] = tested on: HSC2 (primary human Schwann cells); assay: as above
Summary of the method: as §1

HS-Sch-2 [17] = assay: as above
Summary of the method: as §1

STS26T [18] = assay: as above
Summary of the method: as §1

[19] = tested on: HSC1 (primary human Schwann cells); assay: drug sensitivity score (DSS, CellTox-Green cytotoxicity, 72 h) (DSS (dimensionless)); higher = more cytotoxic; extreme values may be limits of the assay
Summary of the method: (§2)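 MPNST cell lines and primary human Schwann cells were incubated 72 h at 37 °C in 384-well plates holding five 10-fold compound dilutions. CellTox-Green was added before seeding at a final 1:1000 dilution and reported fluorescence from DNA released by disrupted cells. Signals were scaled to vehicle and positive-control wells, and cultures failing plate quality control were dropped. Drug sensitivity score and relative IC50 come from four-parameter logistic fits, with IC50 censored at the top concentration.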

HS-PSS [20] = assay: as above
Summary of the method: as §2

S1507-2 [21] = assay: as above
Summary of the method: as §2

ST8814 [22] = assay: as above
Summary of the method: as §2

[23] = tested on: HSC2 (primary human Schwann cells); assay: as above
Summary of the method: as §2

STS26T [24] = assay: as above
Summary of the method: as §2

| Compound | % inhibition (YST-1 [1]) | % inhibition (S462 [2]) | % inhibition [3] | % inhibition (HS-PSS [4]) | % inhibition (S1507-2 [5]) | % inhibition (ST8814 [6]) | % inhibition [7] | % inhibition (HS-Sch-2 [8]) | % inhibition (STS26T [9]) | drug sensitivity score (YST-1 [10]) | drug sensitivity score (S462 [11]) | drug sensitivity score [12] | drug sensitivity score (HS-PSS [13]) | drug sensitivity score (S1507-2 [14]) | drug sensitivity score (ST8814 [15]) | drug sensitivity score [16] | drug sensitivity score (HS-Sch-2 [17]) | drug sensitivity score (STS26T [18]) | drug sensitivity score [19] | drug sensitivity score (HS-PSS [20]) | drug sensitivity score (S1507-2 [21]) | drug sensitivity score (ST8814 [22]) | drug sensitivity score [23] | drug sensitivity score (STS26T [24]) |
| --- | --- | --- | --- | --- | --- | --- | --- | --- | --- | --- | --- | --- | --- | --- | --- | --- | --- | --- | --- | --- | --- | --- | --- | --- |
| O=C1NC(=O)[C@@H](c2cn3c4c(cccc24)CCC3)[C@@H]1c1c[nH]c2ccccc12 [Tivantinib] (max concentration tested 1000 nM) | 78.2% | 98.43 ± 0.21% | 62.9% | 36.1% | 80 ± 5.9% | 93% | 60.3% | 82.9% | 98.2% | 6.48 | 5.15 ± 0.31 | 3.89 | 2.27 | 5.33 ± 1.5 | 5 | 4.03 | 6 | 6.92 | 1.43 | 0.01 | 4.49 ± 1.2 | 4.59 | 2.53 | 7.73 |
| COc1cc2nccc(Oc3ccc(NC(=O)Nc4cc(C)on4)c(Cl)c3)c2cc1OC [Tivozanib] (max concentration tested 10000 nM) | 58.2% | 58.9 ± 1.3% | 67.7% | 46.2% | 42.795 ± 0.006% | 36.2% | 73.9% | 51.3% | 45.5% | 4.22 | 6.863 ± 0.013 | 5.86 | 2 | 10.5 ± 0.46 | 0 | 6.35 | 2.18 | 3.66 | 0.17 | 0 | 0.631 ± 0.89 | 1.94 | 0 | 1.82 |
| C[C@@H]1CCN(C(=O)CC#N)C[C@@H]1N(C)c1ncnc2[nH]ccc12 [Tofacitinib] (max concentration tested 5000 nM) | -2.9% | 17.1 ± 3.5% | 11.7% | -4.37% | 0.251 ± 0.54% | 6.57% | 25.1% | -3.98% | 10.4% | 0.89 | 1.27 ± 0.56 | 3.18 | 0 | 0.398 ± 0.56 | 0 | 1.53 | 0.89 | 0.0007 | 0 | 0 | 0.083 ± 0.12 | 0 | 0 | 0 |
| CC[C@@]1(O)C(=O)OCc2c1cc1n(c2=O)Cc2cc3c(CN(C)C)c(O)ccc3nc2-1 [Topotecan] (max concentration tested 10000 nM) | 99.7% | 96 ± 1.4% | 91.1% | 87.1% | 92.99 ± 0.57% | 93.6% | 93.5% | 101% | 92.2% | 26.3 | 27.08 ± 0.12 | 19.6 | 14.6 | 18.9 ± 2.7 | 27.2 | 22 | 21.7 | 18.3 | 27.9 | 11.1 | 16.1 ± 2.5 | 32.1 | 18.4 | 15.6 |
| CN(C)CCOc1ccc(/C(=C(/CCCl)c2ccccc2)c2ccccc2)cc1 [Toremifene] (max concentration tested 10000 nM) | 26.3% | 22.3 ± 3% | 21.8% | 48.1% | 32.2 ± 11% | 34.5% | 55.6% | 37.2% | 27.1% | 0.84 | 0.537 ± 0.16 | 1.48 | 2.31 | 1.26 ± 0.65 | 1.19 | 3.28 | 1.63 | 0.998 | 0 | 0 | 1.36 ± 0.28 | 5.11 | 0 | 0.141 |
| CC(C)C[C@@H](C(=O)N[C@H](C(=O)OC1CCCC1)c1ccccc1)[C@H](O)C(=O)NO [Tosedostat] (max concentration tested 10000 nM) | 28.4% | 55 ± 3.6% | 50.1% | 25% | 26.2 ± 6.2% | 28% | 54.6% | 64.9% | 74.9% | 4.41 | 8.03 ± 0.91 | 9.82 | 0.92 | 3.83 ± 0.36 | 2.24 | 12.3 | 11 | 18.2 | 0 | 0 | 10.4 ± 9.7 | 2.29 | 0 | 28.6 |
| CC(=O)Nc1cccc(-n2c(=O)n(C3CC3)c(=O)c3c(Nc4ccc(I)cc4F)n(C)c(=O)c(C)c32)c1 [Trametinib] (max concentration tested 250 nM) | 4.55% | 85.67 ± 0.21% | 64.5% | 46.4% | 76.9 ± 1.3% | 96.7% | 66.4% | 53.5% | 48.4% | 0 | 13.48 ± 0.13 | 9.86 | 5.07 | 10.4 ± 0.064 | 12.8 | 8.12 | 4.27 | 7.88 | 0 | 0.89 | 4.3 ± 0.49 | 6.34 | 0.138 | 0 |
| CC1=C(/C=C/C(C)=C/C=C/C(C)=C/C(=O)O)C(C)(C)CCC1 [Tretinoin] (max concentration tested 10000 nM) | -8.64% | 4.5 ± 5.9% | 32.9% | -12.1% | 22.8 ± 16% | 19.1% | 20.1% | -3.32% | 12.3% | 0 | 0 | 3.65 | 0 | 2.06 ± 2.6 | 1.48 | 1.99 | 0 | 0.0098 | 0 | 0 | 0.483 ± 0.68 | 0 | 0 | 0 |
| O=C(CCCCCCC(=O)Nc1ccc([C@H]2O[C@@H](CSc3nc(-c4ccccc4)c(-c4ccccc4)o3)C[C@@H](c3ccc(CO)cc3)O2)cc1)NO [Tubacin] (max concentration tested 10000 nM) | 56.1% | 64.9 ± 20% | 70% | 48% | 67.9 ± 7.1% | 64.2% | 56.6% | 63.7% | 60.2% | 4.41 | 3.54 ± 1.2 | 3.73 | 4.53 | 3.73 ± 1 | 3.74 | 3.24 | 3.9 | 3.13 | 0 | 0.31 | 0.0428 ± 0.06 | 2.33 | 0 | 3.25 |
| CN1CCc2c(c3ccccc3n2Cc2ccc(C(=O)NO)cc2)C1 [Tubastatin A] (max concentration tested 10000 nM) | 52.4% | 80.8 ± 8.9% | 36.4% | 60.9% | 52.1 ± 7.6% | 40.8% | 23.3% | 74.3% | 52.5% | 4.65 | 4.36 ± 0.37 | 1.74 | 3.48 | 3.45 ± 0.18 | 1.84 | 1.75 | 3.88 | 3.1 | 0 | 0 | 0.928 ± 1.3 | 0 | 0 | 2.56 |
| CN[C@@H]1C[C@H]2O[C@@](C)([C@@H]1OC)n1c3ccccc3c3c4c(c5c6ccccc6n2c5c31)C(=O)N[C@H]4O [UCN-01] (max concentration tested 10000 nM) | 89.8% | 105.6 ± 0.5% | 102% | 100% | 105 ± 1.4% | 105% | 103% | 102% | 104% | 21.8 | 31.03 ± 0.038 | 27.8 | 22.1 | 32.23 ± 0.17 | 27.3 | 30.9 | 26.7 | 27.9 | 15.9 | 6.62 | 15.35 ± 0.12 | 13.8 | 21.7 | 29.4 |
| COc1cc2c(NC3CCN(C(C)C)CC3)nc(C3CCCCC3)nc2cc1OCCCN1CCCC1 [UNC0638] (max concentration tested 10000 nM) | 100% | 98.9 ± 1.6% | 21.5% | 101% | 99.6 ± 1% | 98.6% | 14.9% | 101% | 99.1% | 6.1 | 6.31 ± 2.1 | 0.362 | 8.75 | 8.72 ± 0.32 | 6.45 | 0.116 | 7.32 | 5.05 | 0 | 6.72 | 23.4 ± 25 | 7.41 | 0 | 5.16 |
| COc1cc2c(NC3CCN(C(C)C)CC3)nc(N3CCC(F)(F)CC3)nc2cc1OCCCN1CCCC1 [UNC0642] (max concentration tested 10000 nM) | 94.9% | 93 ± 3% | 7.89% | 99.3% | 101.9 ± 0.52% | 99.1% | 7.25% | 100% | 96.5% | 5.26 | 5.99 ± 0.77 | 0 | 6.56 | 8.23 ± 0.62 | 5.87 | 0 | 6.08 | 5.57 | 0 | 4.78 | 7.07 ± 1.3 | 5.37 | 0 | 6.03 |
